Laboratory results as given in paper PMC5537346, “Characterisation and pharmacological analysis of a crustacean G protein-coupled receptor: the red pigment-concentrating hormone receptor of Daphnia pulex” (Scientific Reports, 2017).
Read-outs that look alike come from different tables or passages of the source. Where a SMILES comes first, the peptide text is derived from it. [ ]: non-standard residue; d: D form. pGlu = O=C1CC[C@@H](C(=O)O)N1

Biological target: T1, Dappu-RPCHR (Daphnia pulex RPCH receptor) (Daphnia pulex, UniProt A0A240FBD5)
T1 sequence (A0A240FBD5 1-451): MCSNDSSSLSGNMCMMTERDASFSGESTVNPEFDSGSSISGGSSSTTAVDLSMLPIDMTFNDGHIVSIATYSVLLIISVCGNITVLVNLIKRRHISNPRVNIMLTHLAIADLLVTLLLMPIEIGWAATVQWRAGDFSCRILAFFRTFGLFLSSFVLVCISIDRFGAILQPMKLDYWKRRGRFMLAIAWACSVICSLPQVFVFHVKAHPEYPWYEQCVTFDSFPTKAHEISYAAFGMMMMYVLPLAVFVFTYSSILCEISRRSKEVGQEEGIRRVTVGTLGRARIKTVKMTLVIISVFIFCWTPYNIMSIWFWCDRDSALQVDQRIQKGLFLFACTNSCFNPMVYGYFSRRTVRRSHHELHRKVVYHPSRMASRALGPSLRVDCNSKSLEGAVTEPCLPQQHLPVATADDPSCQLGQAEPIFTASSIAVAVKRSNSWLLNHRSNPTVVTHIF
Assay: in vitro cell-based bioluminescence (aequorin Ca2+) assay on Dappu-RPCHR expressing CHO-WTA11 cells
Settings: for fold lower affinity / potency relative to Dappu-RPCH: from EC50 values
Protocol: Pharmacological analyses were performed in Chinese hamster ovary (CHO) WTA11 cells stably co-expressing the bioluminescent protein apoaequorin and the promiscuous Gα16 subunit, which couples most agonist-induced GPCRs to the phospholipase C and Ca^2+ pathway, irrespective of their natural signalling cascade.
CHO-WTA11 cells were cultured in monolayers in Dulbecco’s Modified Eagles Medium nutrient mixture F12-Ham (DMEM/F12) with L-glutamine, 15 mM HEPES, sodium bicarbonate and phenol red (Sigma-Aldrich) supplemented with 100 IU/ml penicillin and 100 µg/ml streptomycin (Gibco), 10% heat-inactivated fetal bovine serum (Gibco) and […] zeocin (Gibco). All cells were maintained in an incubator at 37 °C with a constant supply of 5% CO2.
Transfections with pcDNA3.1-Dappu-RPCHR or empty pcDNA3.1 vector were carried out in T75 flasks at 60–80% confluency. Transfection medium was prepared using the Lipofectamine LTX Kit (Invitrogen) with 2.5 ml Opti-MEM® (Gibco), 12.5 µl PlusTM Reagent and 5 µg vector construct in 5 ml polystyrene round-bottom tubes. After a 5 min incubation period at room temperature, 30 µl LTX was added to the medium. After a further incubation period of 30 min at room temperature, the medium was removed and DNA/LTX mix was added dropwise to the cells followed by 3 ml of fresh complete medium.
Following transfection, cells were incubated overnight (37 °C, 5% CO2), then 10 ml of cell medium was added followed by a second overnight incubation (37 °C, 5% CO2). Ligand-induced changes in intracellular Ca^2+ were then monitored in the cells as described below.
CHO-WTA11 cells transfected with receptor construct (or empty vector) plasmid were detached with PBS, complemented with 0.2% EDTA (pH 8.0), and rinsed off the flask with DMEM/F12 with L-glutamine and 15 mM HEPES (Sigma-Aldrich). The number of viable and nonviable cells was determined using a TC20 automated Cell Counter (BIO-RAD). The cells were pelleted for 5 minutes at 800 rpm and resuspended to a density of 5.10^6 cells/ml in sterile filtered bovine serum albumin (BSA) medium (DMEM/F12 with L-glutamine and 15 mM Hepes, supplemented with 0.1% BSA) and loaded with 5 µM Coelenterazine_h (Invitrogen) for 4 h in the dark, at room temperature, while gently shaking to reconstitute the holo-enzyme aequorin. After a 10-fold dilution, cell solution (50 µl) was delivered to each well in a 96-well plate (~25000 cells/well) and cells were exposed to potential ligands reconstituted in BSA medium and distributed across the plate. In every row, BSA medium alone was placed in one well to serve as the negative control (blank). The Ca^2+ response was recorded for 30 s on a Mithras LB 940 (Berthold Technologies). After 30 s, 0.1% Triton X-100, a non-ionic surfactant, was added to the same well to measure the total cellular Ca^2+ response. The total response (ligand + Triton X-100), which is directly related to the number of cells present in the well, was used to normalise the response. The response of each negative control was subtracted from the luminescence obtained for wells within the same row. Calculations were made using the output file from the Microwin software (Berthold Technologies) in Excel (Microsoft). Further analysis was done in GraphPad Prism 5.

[1] = Table 1, AKH/RPCH and related peptides, calculated from dose-response curves
[2] = Table 2, analogues of Dappu-RPCH

`CC(C)[C@H](NC(=O)[C@@H]1CCC(=O)N1)C(=O)N[C@@H](CC(N)=O)C(=O)N[C@@H](Cc1ccccc1)C(=O)N[C@@H](CO)C(=O)N1CCC[C@H]1C(=O)N[C@@H](CO)C(=O)N[C@@H](Cc1c[nH]c2ccccc12)C(N)=O` [Anaim-AKH, pQVNFSPSWamide] ([pGlu]VNFSPSW-NH2) was tested. Which EC50 [1] did it give?
Its EC50 is 0.224 nM.

How did the EC50 [1] turn out when `CC(C)[C@H](NC(=O)[C@@H]1CCC(=O)N1)C(=O)N[C@@H](CC(N)=O)C(=O)N[C@@H](Cc1ccccc1)C(=O)N[C@@H](CO)C(=O)N[C@H](C(=O)N[C@@H](CCCCN)C(=O)N[C@@H](Cc1c[nH]c2ccccc12)C(N)=O)[C@@H](C)O` [Argsi-RPCH, pQVNFSTKWamide] ([pGlu]VNFSTKW-NH2) was run?
The EC50 was 21.3 nM.

For `CC(C)C[C@H](NC(=O)[C@@H]1CCC(=O)N1)C(=O)N[C@@H](CC(N)=O)C(=O)N[C@@H](Cc1ccccc1)C(=O)N[C@@H](CO)C(=O)N1CCC[C@H]1C(=O)N[C@@H](CO)C(=O)N[C@@H](Cc1c[nH]c2ccccc12)C(N)=O` [Corpu-AKH, pQLNFSPSWamide] ([pGlu]LNFSPSW-NH2), which “EC50 values (in words)” value is on record?
The value was “more or less the same as for Anaim-AKH”.

What about the EC50 [1] of the same compound?
Its EC50 is 0.212 nM.

What does the source list for `CC(C)[C@H](NC(=O)[C@@H]1CCC(=O)N1)C(=O)N[C@@H](CC(N)=O)C(=O)N[C@@H](Cc1ccccc1)C(=O)N[C@@H](CO)C(=O)N[C@H](C(=O)NCC(=O)N[C@@H](Cc1c[nH]c2ccccc12)C(N)=O)[C@@H](C)O` [Grybi-AKH, pQVNFSTGWamide] ([pGlu]VNFSTGW-NH2)?
EC50: 0.067 nM; EC50 [1]: 0.0667 nM

For `CC(C)[C@H](NC(=O)[C@@H]1CCC(=O)N1)C(=O)N[C@@H](CC(N)=O)C(=O)N[C@@H](Cc1ccccc1)C(=O)N[C@H](C(=O)N1CCC[C@H]1C(=O)N[C@@H](CO)C(=O)N[C@@H](Cc1c[nH]c2ccccc12)C(N)=O)[C@@H](C)O` [Libau-AKH, pQVNFTPSWamide] ([pGlu]VNFTPSW-NH2), which EC50 [1] is on record?
The EC50 was 0.179 nM.

`CC(C)[C@H](NC(=O)[C@@H]1CCC(=O)N1)C(=O)N[C@@H](CC(N)=O)C(=O)N[C@@H](Cc1ccccc1)C(=O)N[C@@H](CO)C(=O)N1CCC[C@H]1C(=O)NCC(=O)N[C@@H](Cc1c[nH]c2ccccc12)C(N)=O` [Manto-CC, pQVNFSPGWamide] ([pGlu]VNFSPGW-NH2) was tested. Which “EC50 values (in words)” value did it give?
The value was “more or less the same as for Anaim-AKH”.

What about the EC50 [1] of the same compound?
The EC50 was 0.1 nM.

Which results are given for `CC(C)C[C@H](NC(=O)[C@@H]1CCC(=O)N1)C(=O)N[C@@H](CC(N)=O)C(=O)N[C@@H](Cc1ccccc1)C(=O)N[C@@H](CO)C(=O)N[C@@H](CO)C(=O)NCC(=O)N[C@@H](Cc1c[nH]c2ccccc12)C(N)=O` [Nepci-AKH, pQLNFSSGWamide] ([pGlu]LNFSSGW-NH2)?
EC50 [1]: 0.272 nM; fold lower affinity / potency relative to Dappu-RPCH: about 4 fold

For `CC(C)C[C@H](NC(=O)[C@@H]1CCC(=O)N1)C(=O)N[C@@H](CC(N)=O)C(=O)N[C@@H](Cc1ccccc1)C(=O)N[C@@H](CO)C(=O)N1CCC[C@H]1C(=O)NCC(=O)N[C@@H](Cc1c[nH]c2ccccc12)C(N)=O` [Panbo-RPCH, pQLNFSPGWamide] ([pGlu]LNFSPGW-NH2), which EC50 [1] is on record?
Its EC50 is 7.93 nM.

With `CC(C)[C@H](NC(=O)[C@@H]1CCC(=O)N1)C(=O)N[C@@H](CC(N)=O)C(=O)N[C@@H](Cc1ccccc1)C(=O)N[C@@H](CO)C(=O)N1CCC[C@H]1C(=O)N[C@@H](CC(N)=O)C(=O)N[C@@H](Cc1c[nH]c2ccccc12)C(N)=O` [Peram-CAH-I, pQVNFSPNWamide] ([pGlu]VNFSPNW-NH2) as the compound, how does the “EC50 values (in words)” value read?
The value was “more or less the same as for Anaim-AKH”.

What about the EC50 [1] of the same compound?
The EC50 was 0.393 nM.

For `CC(C)[C@H](NC(=O)[C@@H]1CCC(=O)N1)C(=O)N[C@@H](CC(N)=O)C(=O)N[C@@H](Cc1ccccc1)C(=O)N[C@@H](CO)C(=O)N1CCC[C@H]1C(=O)N[C@@H](CO)C(=O)N[C@@H](Cc1c[nH]c2ccccc12)C(=O)NCC(=O)N[C@@H](CC(N)=O)C(N)=O` [Placa-HrTH, pQVNFSPSWGNamide] ([pGlu]VNFSPSWGN-NH2), which EC50 is on record?
The EC50 was 0.66 nM.

What about the EC50 [1] of the same compound?
The EC50 was 0.664 nM.

And the “fold lower affinity / potency relative to Dappu-RPCH” value?
The value was “ca. 10 fold”.

Which results are given for `CC(C)C[C@H](NC(=O)[C@@H]1CCC(=O)N1)C(=O)N[C@@H](CC(N)=O)C(=O)N[C@@H](Cc1ccccc1)C(=O)N[C@@H](CO)C(=O)N[C@H](C(=O)NCC(=O)N[C@@H](Cc1c[nH]c2ccccc12)C(N)=O)[C@@H](C)O` [Schgr-AKH-II, pQLNFSTGWamide] ([pGlu]LNFSTGW-NH2)?
EC50 [1]: 0.237 nM; fold lower affinity / potency relative to Dappu-RPCH: about 4 fold

`C[C@H](NC(=O)[C@@H]1CCC(=O)N1)C(=O)N[C@@H](CC(N)=O)C(=O)N[C@@H](Cc1ccccc1)C(=O)N[C@@H](CO)C(=O)N[C@H](C(=O)N[C@@H](CO)C(=O)N[C@@H](Cc1c[nH]c2ccccc12)C(N)=O)[C@@H](C)O` [[Ala^2]Dappu-RPCH, pQANFSTSWamide] ([pGlu]ANFSTSW-NH2) was tested. Which EC50 [2] did it give?
Its EC50 is 17.7 nM.

Which EC50 [2] does the source give for `CC(C)[C@H](NC(=O)[C@@H]1CCC(=O)N1)C(=O)N[C@@H](C)C(=O)N[C@@H](Cc1ccccc1)C(=O)N[C@@H](CO)C(=O)N[C@H](C(=O)N[C@@H](CO)C(=O)N[C@@H](Cc1c[nH]c2ccccc12)C(N)=O)[C@@H](C)O` [[Ala^3]Dappu-RPCH, pQVAFSTSWamide] ([pGlu]VAFSTSW-NH2) here?
Its EC50 is 156 nM.

How did the EC50 [2] turn out when `CC(C)[C@H](NC(=O)[C@@H]1CCC(=O)N1)C(=O)N[C@@H](CC(N)=O)C(=O)N[C@@H](C)C(=O)N[C@@H](CO)C(=O)N[C@H](C(=O)N[C@@H](CO)C(=O)N[C@@H](Cc1c[nH]c2ccccc12)C(N)=O)[C@@H](C)O` [[Ala^4]Dappu-RPCH, pQVNASTSWamide] ([pGlu]VNASTSW-NH2) was run?
Its EC50 is 299 nM.

`CC(C)[C@H](NC(=O)[C@@H]1CCC(=O)N1)C(=O)N[C@@H](CC(N)=O)C(=O)N[C@@H](Cc1ccccc1)C(=O)N[C@@H](C)C(=O)N[C@H](C(=O)N[C@@H](CO)C(=O)N[C@@H](Cc1c[nH]c2ccccc12)C(N)=O)[C@@H](C)O` [[Ala^5]Dappu-RPCH, pQVNFATSWamide] ([pGlu]VNFATSW-NH2) was tested. Which EC50 [2] did it give?
Its EC50 is 3.61 nM.

`CC(C)[C@H](NC(=O)[C@@H]1CCC(=O)N1)C(=O)N[C@@H](CC(N)=O)C(=O)N[C@@H](Cc1ccccc1)C(=O)N[C@@H](CO)C(=O)N[C@@H](C)C(=O)N[C@@H](CO)C(=O)N[C@@H](Cc1c[nH]c2ccccc12)C(N)=O` [[Ala^6]Dappu-RPCH, pQVNFSASWamide] ([pGlu]VNFSASW-NH2) was tested. Which EC50 [2] did it give?
Its EC50 is 0.532 nM.

Which EC50 [2] does the source give for `CC(C)[C@H](NC(=O)[C@@H]1CCC(=O)N1)C(=O)N[C@@H](CC(N)=O)C(=O)N[C@@H](Cc1ccccc1)C(=O)N[C@@H](CO)C(=O)N[C@H](C(=O)N[C@@H](C)C(=O)N[C@@H](Cc1c[nH]c2ccccc12)C(N)=O)[C@@H](C)O` [[Ala^7]Dappu-RPCH, pQVNFSTAWamide] ([pGlu]VNFSTAW-NH2) here?
Its EC50 is 0.355 nM.

How did the EC50 [2] turn out when `CC(C)[C@H](NC(=O)[C@@H]1CCC(=O)N1)C(=O)N[C@@H](CC(N)=O)C(=O)N[C@@H](Cc1ccccc1)C(=O)N[C@@H](CO)C(=O)N[C@H](C(=O)N[C@@H](CO)C(=O)N[C@@H](C)C(N)=O)[C@@H](C)O` [[Ala^8]Dappu-RPCH, pQVNFSTSAamide] ([pGlu]VNFSTSA-NH2) was run?
The EC50 was 131 nM.

For `CC(=O)N[C@@H](C)C(=O)N[C@H](C(=O)N[C@@H](CC(N)=O)C(=O)N[C@@H](Cc1ccccc1)C(=O)N[C@@H](CO)C(=O)N[C@H](C(=O)N[C@@H](CO)C(=O)N[C@@H](Cc1c[nH]c2ccccc12)C(N)=O)[C@@H](C)O)C(C)C` [[N-Ac-Ala^1]Dappu-RPCH, [NAc-Ala]-VNFSTSWamide] (Ac-AVNFSTSW-NH2), which EC50 [2] is on record?
The EC50 was 48.7 nM.

And the “fold lower affinity / potency relative to Dappu-RPCH” value?
The value was 750 fold.
